Experimental data from patent publication US6512002B2, “Methods of treatment for premature ejaculation in a male” (Pfizer Inc., priority 2000, dated 2003).

Legend:
total serum testosterone = test: Testosterone elevation: total serum testosterone in a random, double-blind, parallel group, placebo-controlled study; format: in vivo, men
Description: In a random, double-blind, parallel group, placebo-controlled study, 3-{1-[4-(2-dimethylamino-ethoxy)-phenyl]-2-phenyl-but-enyl}-phenol was administered to men, aged 72 to 84 with below average serum testosterone levels. Subjects received either placebo or 3-{1-[4-(2-dimethylamino-ethoxy)-phenyl]-2-phenyl-but-enyl}-phenol as a sequential escalating dose, with subjects receiving 20 mg daily for the first month, 40 mg daily for the second month, and 60 mg daily for the final four months (remainder) of the study. Total serum testosterone was determined in the subjects at 4 weeks and at 2, 3 and 6 months.

Row | melting point [°C] | SMILES | Mean Percent Change From Baseline in Testosterone (total serum testosterone; 2 Months, men aged 72 to 84, escalating dose, 40 mg daily for the second month) [%] | Mean Percent Change From Baseline in Testosterone (total serum testosterone; 3 Months, men aged 72 to 84, escalating dose, 60 mg daily for the final four months) [%] | Mean Percent Change From Baseline in Testosterone (total serum testosterone; 6 Months, men aged 72 to 84, escalating dose, 60 mg daily for the final four months) [%] | Mean Percent Change From Baseline in Testosterone (total serum testosterone; Week 4, men aged 72 to 84 with below average serum testosterone, 20 mg daily for the first month) [%] | total serum testosterone versus subjects receiving placebo during the study (total serum testosterone; men aged 72 to 84, 20/40/60 mg daily escalating dose over 6 months, p=0.026)
1 | 162.8 to 163.6 | CCCOc1ncc(C(C)=O)cc1-c1nc2c(CC)n(C3CN(C(C)C)C3)nc2c(=O)[nH]1 |  |  |  |  | 
2 |  | CCC(=C(c1ccc(OCCN(C)C)cc1)c1cccc(O)c1)c1ccccc1 [Treatment Compound, 3-{1-[4-(2-dimethylamino-ethoxy)-phenyl]-2-phenyl-but-enyl}-phenol] | 44.45 | 41.47 | 45.19 | 36.20 | significant increase
